Publication PMC6915728 (Nature Communications, 2019)

Assays:
[1] = test system: E. coli essential gene hypomorphic alleles; experiment: Chemical-genetic screen of 279 essential gene hypomorphs on high-density agar plates (AMPs and antibiotics); assay type: cell-based, Escherichia coli; settings: folA hypomorphic allele, sub-inhibitory AMP (50% growth inhibition of wild type), 32 °C, 20 h
Description: Chemical-genetic profiling based on gene depletion captures a different aspect of resistance determinants than gene overexpression. […] To investigate the intrinsic AMP resistome, we initiated a chemical-genetic screen with a set of 279 partially depleted essential genes (hypomorphic alleles; see Methods) of E. coli. […] Then, using a well-established high-density agar plate assay[19],[33], we determined their chemical-genetic interaction profiles across the hypomorphic alleles (Supplementary Data 5). […]
Analogous to our E. coli synthetic genetic array approach, our chemical-genetics screening strategy involves robotic pinning of each Kan^R marked single essential gene hypomorph arrayed in 384 colony format on Luria Broth (LB) medium, in quadruplicate, onto the minimal medium containing AMPs under a selected concentration, in two replicates, generating eight replicates in total for each essential gene hypomorph. […] The normalized colony sizes from the AMP plate was subtracted from their corresponding colony screened without AMP to estimate the final hypomorphic-strain fitness score (sensitive or resistant), which is as an average of all eight replicate measurements recorded for each hypomorphic allele. A z-score distribution based p-value was calculated for all interactions and those with p ≤ 0.05 were deemed as significant interactions. […]

E. coli = settings: previous laboratory evolution experiment; cited from earlier work
Description: The results presented in this study may have important implications for the development of AMP-based therapies. Previous works reported several instances of cross-resistance interactions between membrane-targeting peptides (Supplementary Data 1), however, the potential for cross-resistance across AMPs with different modes of action has remained poorly understood. Specifically, while cross-resistance between host and therapeutic AMPs is certainly a realistic danger, not all AMPs are equally prone to cross-resistance. Given the immense diversity of AMPs with major differences in physicochemical ...

Sequence | Effect of folA depletion on susceptibility [1] | Emergence of resistant lines in laboratory evolution (E. coli)
RRRPRPPYLPRPRPPPFFPPRLPPRIPPGFPPRFPPRFP [PR39, PR-39, cathelicidin, source pig; cluster C4] | sensitivity | –
RWCFRVCYRGICYRKCR [TPII, Tachyplesin II, antimicrobial peptide from Japanese horseshoe crab; disrupts cell membrane; cluster C1] | – | did not result in any significant resistant lines
